According to patent US11260050B2, “Combination of cotinine plus antioxidant for treatment-resistant depression and correction of astrocytes functional deficit induced by depression and other neuropathological” (UNIVERSIDAD SAN SEBASTIAN, priority 2017, dated 2022):

Experiments:
GFAP+ astrocytes = experiment: Morphology and fractal analysis of GFAP+ cells in the hippocampus (Example 2); assay type: in vivo, C57BL/6 male mice
Method: For the IR analysis, for each mouse, three digital images were randomly selected at 40× magnifications in the areas of interest (hippocampus and frontal cortex) (n=5-6/condition). The images were taken using a digital camera attached to a light microscope (Micrometrics, MilesCo Scientific, Princeton, Minn., USA) connected to a camera operated by a commercial software (Micrometrics SE Premium). The determination of the area of the immunolabeling was calculated delimiting the IR areas using the ImageJ software (National Institute of Health, Bethesda, […]., USA). For all analyses, GFAP^+ astrocytes were selected randomly from the frontal cortex and the CA1, CA3 and dentate gyrus regions of the hippocampus and quantified. Using a digital camera on an inverted microscope, black and white images of GFAP^+ astrocytes were obtained and processed with Image J software. Using a 20× objective, cells were chosen randomly in the same area selected for immunostaining, and the binary overlay of a cell was created by thresholding. For all images, a threshold value was established at the level at which the binary overlay entirely enclosed the cell body and projections. All pixels above the threshold value were considered as belonging to the cell images. Finally, the binary silhouette of the whole cell was reduced to its one-pixel outline for estimation of the fractal dimensions with the FracLac 2.5 ImageJ plug-in (Karperien et al., 2013; Karperien and Jelinek, 2015)
Fractal analysis was done on binary images by means of the dilation method (Schaffner and Ghesquiere, 2001). The slope of the regression line (S) is related to the fractal dimension (D) by D=1−S. Each pixel in the cell outline was replaced with a disk of a diameter fluctuating from 3-61 pixels and the area of the widened outline divided by the diameter of structuring element was plotted against this diameter on a log-log scale.
the area of the cell body that is calculated as the two-dimensional cross-sectional area contained within the boundary of the cell body.
The area of the convex polygon formed by connecting the tips of the longest astrocytic processes (convex hull area). Convex hull values indicate the size of the branching field of the astrocyte. The amount of physical space is defined in terms of convex-hull volume, surface area, area, and or perimeter.
Measures heterogeneity and complements fractal dimension analysis in describing structural complexity (Karperien et al., 2013; Karperien and Jelinek, 2015; Schaffner and Ghesquiere, 2001).

GFAP = GFAP immunoreactivity and GFAP+ cell density, hippocampus and frontal cortex (Example 2); assay type: in vivo, C57BL/6 male mice
Method: Mice between 2-3 months of age after one week of acclimatization were randomly divided into two groups. Stressed mice were subjected to restraint stress. Control (non-restrained) mice were allowed to move freely during this period. After the stress exposure period, mice were divided into three experimental groups: 1) Non-restrained mice treated with vehicle (PBS, pH 7.4) serving as unstressed controls (n=8); 2) Restrained mice (RS) treated with vehicle (n=8); 3), RS mice treated with 24 μl of a cotinine solution (10 mg/ml in PBS, pH 7.4) via intranasal route of administration (n=6). Treatments were administered daily until euthanasia. After two weeks of treatments mice were behaviorally tested and euthanized (FIG. 10)
For all protein analyses, mice were euthanized and brains removed. Each brain was divided into two hemispheres. The left hemisphere of brains was dissected out to collect the regions of interest and quickly frozen for later analyses. For the immunohistochemical (IHC) analysis the right hemisphere of each mouse brain was placed in 10% formalin in PBS pH 7.4 for 48 h and then embedded in paraffin. Each region of interest was located using Paxinos Atlas as a reference (Paxinos and Franklin, 2004), and serial […] of 4 μm (n≥5/mouse) were collected using the Microtome Leica RM 2125RT and mounted on silanized glass slides.
The analysis of GFAP^+ cells was performed using tissue slices containing the ventral hippocampus (Approx. Bregma −4.08 mm, interaural 4.92 mm) and frontal cortex (Approx. Bregma 3.2 mm, interaural 1.54 mm). Sagittal sections of brains were collected in PBS and processed for GFAP immunoreactivity (IR). Brain slices were immersed in xylene and a decreasing graduation of ethanol baths for hydration. Then, slides were subjected to a standard process of antigenic recovery in buffer citrate pH=6 in a pressurized saucepan (Biocare Medical, Walnut Creek, Calif.) for 30 min. Next, slides were incubated with a solution of 3% hydrogen peroxide to block endogenous peroxidase for 5 min, washed with PBS, and blocked with a horse serum solution (Vectastain Elite ABC, Vector Laboratories, Burlingame, Calif., USA) for 10 min at room temperature (RT). Sections were washed in PBS and incubated for 1 hour (Franklin, 2001) at RT with an antibody against GFAP 1:100 (Sigma). After washing with PBS, sections were incubated with a biotinylated secondary antibody for 10 min. Then, sections were washed with PBS and incubated with the amplifier solution from the Vectastain Elite kit for 10 min at RT. The reaction was visualized using ImmunoDetector DAB (SB Bio Inc., Santa Barbara, Calif., USA). For counterstaining, sections were stained with hematoxylin for 30 seconds (sec), dehydrated in baths of ascending percentages of alcohol solutions and xylene, and mounted with synthetic resin.
For the IR analysis, for each mouse, three digital images were randomly selected at 40× magnifications in the areas of interest (hippocampus and frontal cortex) (n=5-6/condition). […] The determination of the area of the immunolabeling was calculated delimiting the IR areas using the ImageJ software (National Institute of Health, Bethesda, […]., USA). For all analyses, GFAP^+ astrocytes were selected randomly from the frontal cortex and the CA1, CA3 and dentate gyrus regions of the hippocampus and quantified. […]

[1] = cotinine-treated restrained mice
[2] = cotinine IN administered after RS

## CN1C(=O)CC[C@H]1c1cccnc1 [Cotinine, (5S)-1-methyl-5-(3-pyridyl) pyrrolidin-2-one]
GFAP+ astrocytes; [1]
  GFAP+ cell area across CA1, CA3 and DG: statistically indistinguishable from nonstressed controls
  appearance of GFAP+ astrocytes in hippocampi and frontal cortices: large GFAP^+ cells with longer and more complex arborization
GFAP+ astrocytes; p<0.001 vs vehicle-treated restrained mice
  arbor area of astrocytes, DG: greater astrocytic arborization than vehicle-treated, restrained mice
GFAP+ astrocytes; p<0.05
  fractal dimension (FD) of astrocytes, DG: vehicle-treated, restrained mice had a significant reduction in FD of astrocytes in the DG when compared to cotinine-treated, restrained mice
  lacunarity of astrocytes, DG: vehicle-treated, restrained mice had reduced lacunarity of astrocytes relative to both their cotinine-treated, stressed
GFAP+ astrocytes; p<0.05 vs non-stressed controls, p<0.01 vs vehicle-treated restrained
  arbor area of astrocytes, CA3: significantly more arbor area of astrocytes than non-stressed controls
GFAP+ astrocytes; p<0.05 vs non-stressed controls, p=0.075 vs vehicle-treated stressed
  arbor area of astrocytes, CA1: significantly more arbor area than the non-stressed controls
GFAP; Ctrl 144, RS 97
  number of hippocampal GFAP+ cells counted: 140
GFAP; [2]
  GFAP IR in the frontal cortex: 90 % of control values
  GFAP IR in the hippocampus: 84 % of control value
GFAP; restrained mice, CA1 p<0.01, CA2 p<0.05, DG p<0.01
  GFAP+ cell density in hippocampal regions: significantly higher in the cotinine-treated restrained mice relative to vehicle-treated restrained mice
GFAP; vehicle-treated vs cotinine-treated control mice
  GFAP+ cell density in control (non-stressed) mice: No significant differences
